Experiment [1] concerns platelet adhesion to fibrinogen. Nature of the experiment: Inhibition of platelet adhesion to fibrinogen-coated plates. Format: cell-based. The arrangement: Percent Inhibition of Adhesion, Fibrinogen, Extent: dose or concentration left out as unconfirmed. The conditions noted are these: for IC50: fibrinogen-coated plates. The protocol: (§1) Polystyrene 96-well microtiter plates (Costar, Cambridge, MA) are coated with […] per well of […] collagen dissolved in 5 mM acetic acid for 1 hour at room temperature followed by blocking of the non-specific cell binding sites by addition of […] of 10 mg/ml heat-denatured BSA for 1 hour. Control wells are coated with BSA only. The wells are rinsed three times with HEPES buffered saline (HBS) containing 20 mM HEPES, pH 7.4, 0.14 M NaCl, and 2 mM MgCl2. […] of washed platelets are incubated with various concentrations of polypeptide I or buffer as a control for 5 minutes at room temperature and then added to each collagen coated well and incubated at room temperature for 45 minutes. Nonadherent platelets are removed by aspiration, and the wells are rinsed three times with […] of HBS. The number of adhered platelets is determined by protein assay, using the BCA reagent and measuring the absorbance of each well at […].
(§2) Sequence ID Nos. I, II, III, IV and V were evaluated for their ability to block platelet adhesion to collagen using the assay described in Example 2 to determine inhibition of platelet adhesion to collagen. An assay similar to the assay described in Example 2, with the exception that plates are coated with fibrinogen rather than collagen, for determining inhibition of platelet binding to fibrinogen.

In experiment [2] the test system is ADP-stimulated platelet aggregation. In words: Inhibition of ADP-stimulated platelet aggregation. Format: cell-based. The conditions noted are these: Table 1.
The test system of experiment [3] is platelet adhesion to collagen. Nature of the experiment: Inhibition of platelet adhesion to collagen-coated microtiter wells. Format: cell-based. The protocol:
as §1, §2

In experiment [4] the target is washed platelets.
Experiment [5] has as its target fibrinogen receptor glycoprotein IIb/IIIa.
Experiment [6] can be described thus: Preliminary in vivo antithrombotic studies.

Like-named read-outs stand apart in the source and are kept apart here. Positions of bridges follow the written chain, without caps; N, C: chain ends. No end group written: not given here. Some results are limits rather than exact numbers.

The record followed here is patent publication US5179082A, “Method for blocking platelet adhesion to collagen” (Merck & Co., Inc., priority 1991, dated 1993).

For “Polypeptide V: NH2 (Ch) Ala Arg Gly Asp (Cy) Z, Z = NH2; 39 amino acids, terminal amino group at Cys 39 (ECESGPCCRNCKFLKEGTICKRARGDDMDDYCNGKTCDC-NH2; not fully specified (bridges); also: terminal modifications Ch, Cy, terminal amino group at Cys 39)”, the “Percent Inhibition of Adhesion, Fibrinogen, Extent” value in experiment [1] turned out to be 55%. Moreover, the IC50 in experiment [1] (Table 1) is > 8000 nM; in experiment [2], 800 nM; in experiment [3] (Table 1, collagen-coated wells, washed platelets), 530 nM. Also, in experiment [3] (Table 1), the “Percent Inhibition of Adhesion, Collagen, Extent” value was 58%. Also, in experiment [3] (comparison of Table 1 values), the “Specificity for platelet adhesion to collagen (versus fibrinogen)” value is on record as “most specific for platelet adhesion to collagen”.

In experiment [4], “polypeptide I (Sequence ID No. 1), synthetic echistatin” gave a Percent inhibition of adhesion to collagen, Extent of 50%. Moreover, the Percent inhibition of adhesion to fibrinogen, Extent in experiment [5] is 95%.

On to “H-ECESGPCCRNCKFLKEGTICKRARGDDMDDYCNGKTCDCPRNPHKGPAT-OH (disulfide 2-11, 7-32, 8-37, 20-39 (inferred)) [Polypeptide I, echistatin]”, for which the “Percent Inhibition of Adhesion, Fibrinogen, Extent” value in experiment [1] (Table 1, concentration not given) is listed as 95%. Besides, the IC50 in experiment [1] (Table 1) is 270 nM; in experiment [2], 30 nM. For the same substance, in experiment [3], the “Inhibition of platelet adhesion to collagen (in words)” value is “inhibit platelet adhesion to collagen”. In addition, the “Percent Inhibition of Adhesion, Collagen, Extent” value in experiment [3] (Table 1) was determined as 50%. Also, the “Decrease of control A562 values (adhered platelets)” value in experiment [3] (concentration dependent, control A562 0.3 to 1.0 O.D.) was “up to 50%”. Further, in experiment [6], the “Antithrombotic effect in vivo” value is “very effective antithrombotic agent”.

The IC50 is the midpoint of a concentration-inhibition curve.
